# Assay results published in PubChem BioAssay AID256 (DTP/NCI, 2004).
# Several values for one entry are separate records, joined by “and”; a condition that tells them apart may be missing. Identical values can stand only once. Inconclusive results and toxic doses are left out.
# System: CD2F1 mice, L1210 leukemia ip, survival T/C
# Test: NCI In Vivo Anticancer Drug Screen. Data for tumor model L1210 Leukemia (intraperitoneal) in CD2F1 (CDF1) mice
# Settings: higher = longer survival
# Method in brief: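 Implant tumor; dose compound or vehicle; measure endpoint in both groups; report treated divided by control.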
# [1] = endpoint: mean survival time, dose: 100.0 mg/kg/injection, schedule: Q01DX001 (ip), vehicle: saline with Tween-80
# [2] = endpoint: mean survival time, dose: 200.0 mg/kg/injection, schedule: Q01DX001 (ip), vehicle: saline with Tween-80
# [3] = endpoint: mean survival time, dose: 400.0 mg/kg/injection, schedule: Q01DX001 (ip), vehicle: saline with Tween-80
# [4] = endpoint: mean survival time, dose: 100.0 mg/kg/injection, schedule: Q01DX009 (ip), vehicle: saline with Tween-80
# [5] = endpoint: mean survival time, dose: 200.0 mg/kg/injection, schedule: Q01DX009 (ip), vehicle: saline with Tween-80
# [6] = endpoint: mean survival time, dose: 400.0 mg/kg/injection, schedule: Q01DX009 (ip), vehicle: saline with Tween-80
# [7] = endpoint: mean survival time, dose: 100.0 mg/kg/injection, schedule: Q04DX003 (ip), vehicle: saline with Tween-80
# [8] = endpoint: mean survival time, dose: 200.0 mg/kg/injection, schedule: Q04DX003 (ip), vehicle: saline with Tween-80
# [9] = endpoint: mean survival time, dose: 400.0 mg/kg/injection, schedule: Q04DX003 (ip), vehicle: saline with Tween-80
# [10] = endpoint: mean survival time, dose: 100.0 mg/kg/injection, schedule: Q04DX002 (ip), vehicle: saline with Tween-80
smiles,measurement,setting,value
CC(=O)N(c1ccccc1)C1CCC2(C)C(=CCC3C2CCC2(C)C(C(C)CCCC(C)C)CCC32)C1 (configuration not stated),T/C,"endpoint: mean survival time, dose: 100.0 mg/kg/injection, schedule: Q01DX009 (sc), vehicle: steriod suspending solution",96 % of control
same,T/C,"endpoint: mean survival time, dose: 100.0 mg/kg/injection, schedule: Q04DX003 (sc), vehicle: steriod suspending solution",95 % of control
same,T/C,"endpoint: mean survival time, dose: 200.0 mg/kg/injection, schedule: Q01DX009 (sc), vehicle: steriod suspending solution",102 % of control
same,T/C,"endpoint: mean survival time, dose: 200.0 mg/kg/injection, schedule: Q04DX003 (sc), vehicle: steriod suspending solution",93 % of control
same,T/C,"endpoint: mean survival time, dose: 400.0 mg/kg/injection, schedule: Q01DX009 (sc), vehicle: steriod suspending solution",102 % of control
same,T/C,"endpoint: mean survival time, dose: 400.0 mg/kg/injection, schedule: Q04DX003 (sc), vehicle: steriod suspending solution",96 % of control
O=c1[nH]c(=O)n(CCCCOc2ccccc2)cc1-c1ccccc1,T/C,[1],98 % of control
same,T/C,[2],101 % of control
same,T/C,[3],96 % of control
c1ccc(-c2cc(-c3ccccc3)n(-c3ccccc3)c2-c2ccccc2)cc1,T/C,[4],88 % of control
same,T/C,[5],94 % of control
same,T/C,[6],88 % of control
O=[N+]([O-])/C=C\c1ccc2c(c1)OCO2,T/C,[7],101 % of control
same,T/C,[8],93 % of control
same,T/C,[9],90 % of control
CC(=O)OCc1cccnc1,T/C,"endpoint: mean survival time, dose: 100.0 mg/kg/injection, schedule: Q01DX009 (ip), vehicle: saline",96 % of control
same,T/C,"endpoint: mean survival time, dose: 200.0 mg/kg/injection, schedule: Q01DX009 (ip), vehicle: saline",94 % of control
same,T/C,"endpoint: mean survival time, dose: 400.0 mg/kg/injection, schedule: Q01DX009 (ip), vehicle: saline",86 % of control
CCOc1cccc(Cc2cn(Cc3cccc(NC(=O)c4ccc(S(=O)(=O)F)cc4)c3)c(=O)[nH]c2=O)c1,T/C,"endpoint: mean survival time, dose: 75.0 mg/kg/injection, schedule: Q01DX001 (ip), vehicle: saline with Tween-80",100 % of control
same,T/C,"endpoint: mean survival time, dose: 150.0 mg/kg/injection, schedule: Q01DX001 (ip), vehicle: saline with Tween-80",97 % of control
NS(=O)(=O)c1ccc(NC(=O)Nc2cccc(F)c2)cc1,T/C,[4],98 % of control
same,T/C,[5],106 % of control
same,T/C,[6],97 % of control
COc1ccc(/C(C)=N/N=C(\C)c2ccc(OC)cc2)cc1,T/C,"endpoint: mean survival time, dose: 25.0 mg/kg/injection, schedule: Q04DX003 (ip), vehicle: saline with Tween-80",105 % of control
same,T/C,"endpoint: mean survival time, dose: 50.0 mg/kg/injection, schedule: Q04DX003 (ip), vehicle: saline with Tween-80",102 % of control
same,T/C,[7],102 % of control
CC(=O)Nc1cccc(N=NN(C)C)c1,T/C,"endpoint: mean survival time, dose: 12.5 mg/kg/injection, schedule: Q01DX009 (ip), vehicle: Klucel (hydroxypropylcellulose) (HPC)",113 % of control
same,T/C,"endpoint: mean survival time, dose: 50.0 mg/kg/injection, schedule: Q01DX009 (ip), vehicle: Klucel (hydroxypropylcellulose) (HPC)",151 % of control
same,T/C,"endpoint: mean survival time, dose: 200.0 mg/kg/injection, schedule: Q01DX009 (ip), vehicle: Klucel (hydroxypropylcellulose) (HPC)",87 % of control
Oc1ccc(Cl)cc1Sc1cc(Cl)ccc1O,T/C,"endpoint: mean survival time, dose: 100.0 mg/kg/injection, schedule: Q04DX003 (ip), vehicle: other",108 % of control
OC1CCCCCCCCCCC12OCCO2 (configuration not stated),T/C,"endpoint: mean survival time, dose: 100.0 mg/kg/injection, schedule: Q04DX002 (ip), vehicle: other",98 % of control
same,T/C,"endpoint: mean survival time, dose: 200.0 mg/kg/injection, schedule: Q04DX002 (ip), vehicle: other",113 % of control
same,T/C,"endpoint: mean survival time, dose: 400.0 mg/kg/injection, schedule: Q04DX002 (ip), vehicle: other",95 % of control
O=C(CNC(=O)Nc1ccc(Cl)c(Cl)c1)NNC(=O)Nc1ccc(F)c(Cl)c1,T/C,[4],96 % of control
same,T/C,[5],95 % of control
same,T/C,[6],91 % of control
CCCCOC(=O)c1ccc(NC(=O)Nc2ccccc2OC)cc1,T/C,[4],97 % of control
same,T/C,[7],108 % of control
same,T/C,[5],91 % of control
same,T/C,[8],103 % of control
same,T/C,[6],92 % of control
same,T/C,[9],88 % of control
O=NN(CCCl)C(=O)Oc1cc(Cl)c(Cl)cc1Cl,T/C,"endpoint: median survival time, dose: 6.0 mg/kg/injection, schedule: Q01DX009 (ip), vehicle: Klucel (hydroxypropylcellulose) (HPC)",106 % of control
same,T/C,"endpoint: median survival time, dose: 12.0 mg/kg/injection, schedule: Q01DX009 (ip), vehicle: Klucel (hydroxypropylcellulose) (HPC)",124 % of control
same,T/C,"endpoint: median survival time, dose: 12.5 mg/kg/injection, schedule: Q01DX009 (ip), vehicle: Klucel (hydroxypropylcellulose) (HPC)",109 % of control
same,T/C,"endpoint: median survival time, dose: 50.0 mg/kg/injection, schedule: Q01DX009 (ip), vehicle: Klucel (hydroxypropylcellulose) (HPC)",195 % of control
COc1c(NC(=O)Nc2cccc(Cl)c2)cccc1[N+](=O)[O-],T/C,[10],92 % of control
same,T/C,"endpoint: mean survival time, dose: 200.0 mg/kg/injection, schedule: Q04DX002 (ip), vehicle: saline with Tween-80",88 % of control
COC(=O)c1cc(C)n(-c2ccc(C)cc2)c1C,T/C,[7],100 % of control
same,T/C,[8],96 % of control
same,T/C,[9],97 % of control
Nc1nc(N)c2cc(CNc3ccc(C(=O)NC(C(=O)O)C(=O)O)cc3)ccc2n1,T/C,"endpoint: mean survival time, dose: 0.8 mg/kg/injection, schedule: Q01DX009 (ip), vehicle: saline",102 % of control
same,T/C,"endpoint: mean survival time, dose: 1.6 mg/kg/injection, schedule: Q01DX009 (ip), vehicle: saline",86 % of control
c1ccc(C2NC2c2ccccc2)cc1 (configuration not stated),T/C,"endpoint: median survival time, dose: 50.0 mg/kg/injection, schedule: Q04DX002 (ip), vehicle: saline with Tween-80",100 % of control
same,T/C,"endpoint: median survival time, dose: 100.0 mg/kg/injection, schedule: Q04DX002 (ip), vehicle: saline with Tween-80",100 % of control
same,T/C,"endpoint: median survival time, dose: 200.0 mg/kg/injection, schedule: Q04DX002 (ip), vehicle: saline with Tween-80",100 % of control
same,T/C,"endpoint: median survival time, dose: 400.0 mg/kg/injection, schedule: Q04DX002 (ip), vehicle: saline with Tween-80",100 % of control
CC(=O)NC(C)C(=O)NC1C(C)OC(=O)C2=C(O)CC(O)C(O)C21 (configuration not stated),T/C,[7],92 % of control
same,T/C,[8],100 % of control
same,T/C,[9],97 % of control
O=C(O)CCC(=O)NNC(=O)c1cccnc1,T/C,"endpoint: mean survival time, dose: 25.0 mg/kg/injection, schedule: Q04DX002 (ip), vehicle: saline with Tween-80",107 % of control
same,T/C,"endpoint: mean survival time, dose: 50.0 mg/kg/injection, schedule: Q04DX002 (ip), vehicle: saline with Tween-80",104 % of control
same,T/C,[1],106 % of control
same,T/C,[10],107 % of control
same,T/C,[2],106 % of control
same,T/C,[3],98 % of control
CN(Cc1cnc2nc(N)nc(N)c2n1)c1ccc(C(=O)NC(CCC(=O)O)C(=O)NC(CCC(=O)O)C(=O)O)cc1 (configuration not stated),T/C,"endpoint: mean survival time, dose: 1.0 mg/kg/injection, schedule: Q01DX009 (ip), vehicle: sodium bicarbonate",105 % of control
same,T/C,"endpoint: mean survival time, dose: 2.0 mg/kg/injection, schedule: Q01DX009 (ip), vehicle: sodium bicarbonate",100 % of control
same,T/C,"endpoint: mean survival time, dose: 5.0 mg/kg/injection, schedule: Q01DX009 (ip), vehicle: sodium bicarbonate",102 % of control
same,T/C,"endpoint: mean survival time, dose: 25.0 mg/kg/injection, schedule: Q01DX009 (ip), vehicle: sodium bicarbonate",167 % of control
NCCSc1ccccc1,T/C,"endpoint: mean survival time, dose: 12.5 mg/kg/injection, schedule: Q01DX009 (ip), vehicle: saline with Tween-80",89 % of control
same,T/C,"endpoint: mean survival time, dose: 25.0 mg/kg/injection, schedule: Q01DX009 (ip), vehicle: saline with Tween-80",89 % of control
same,T/C,"endpoint: mean survival time, dose: 50.0 mg/kg/injection, schedule: Q01DX009 (ip), vehicle: saline with Tween-80",90 % of control and 108 % of control
same,T/C,[4],87 % of control and 98 % of control
CC(C)OC(=O)CCl,T/C,[1],100 % of control
same,T/C,[2],100 % of control
COC(CNCCO)c1ccccc1 (configuration not stated),T/C,"endpoint: mean survival time, dose: 25.0 mg/kg/injection, schedule: Q01DX001 (ip), vehicle: saline",97 % of control
same,T/C,"endpoint: mean survival time, dose: 50.0 mg/kg/injection, schedule: Q01DX001 (ip), vehicle: saline",101 % of control
same,T/C,"endpoint: mean survival time, dose: 100.0 mg/kg/injection, schedule: Q01DX001 (ip), vehicle: saline",100 % of control and 106 % of control
C=CCN(CC=C)C(=S)Nc1cccc(Br)c1,T/C,"endpoint: mean survival time, dose: 100.0 mg/kg/injection, schedule: Q01DX009 (ip), vehicle: other",96 % of control
same,T/C,"endpoint: mean survival time, dose: 200.0 mg/kg/injection, schedule: Q01DX009 (ip), vehicle: other",95 % of control
same,T/C,"endpoint: mean survival time, dose: 400.0 mg/kg/injection, schedule: Q01DX009 (ip), vehicle: other",101 % of control
COC(=O)c1ccc(SCC2=Nc3c(nc(N)[nH]c3=O)NCC2)cc1,T/C,"endpoint: mean survival time, dose: 0.38 mg/kg/injection, schedule: Q01DX009 (ip), vehicle: distilled water + Tween-80",100 % of control
same,T/C,"endpoint: mean survival time, dose: 0.75 mg/kg/injection, schedule: Q01DX009 (ip), vehicle: distilled water + Tween-80",101 % of control
same,T/C,"endpoint: mean survival time, dose: 1.5 mg/kg/injection, schedule: Q01DX009 (ip), vehicle: distilled water + Tween-80",105 % of control
same,T/C,"endpoint: mean survival time, dose: 3.0 mg/kg/injection, schedule: Q01DX009 (ip), vehicle: distilled water + Tween-80",100 % of control
same,T/C,"endpoint: mean survival time, dose: 6.0 mg/kg/injection, schedule: Q01DX009 (ip), vehicle: distilled water + Tween-80",101 % of control
same,T/C,"endpoint: mean survival time, dose: 12.0 mg/kg/injection, schedule: Q01DX009 (ip), vehicle: distilled water + Tween-80",93 % of control
same,T/C,"endpoint: mean survival time, dose: 48.0 mg/kg/injection, schedule: Q01DX009 (ip), vehicle: distilled water + Tween-80",88 % of control
C(=C\c1ccncc1)/c1ccccc1,T/C,[7],93 % of control
same,T/C,[8],92 % of control
same,T/C,[9],93 % of control
